According to patent US8435980B2 (AbbVie Inc., priority 2009, dated 2013):

Target: T1, Cdc7 (BEV coexpressed huCDC7/DBF4) (Homo sapiens, UniProt O00311)
T1 construct: made in house; host or cells: BEV (baculovirus expression vector) co-expression; insect cells are implied but no cell line is named
Experiment: Cdc7 enzyme inhibition assay ([33P]ATP, biotinylated peptide substrate, FlashPlate)
Assay type: biochemical
Conditions: not given
Description: Cdc7 (BEV coexpressed huCDC7/DBF4) is prepared internally. Cdc7 assays are conducted as follows with final concentrations as listed. […] Reactions are quenched after 1 hr by the addition of 90 μL stop buffer (50 mM EDTA, 2M NaCl). […] (Ki) for exemplary compounds.

T1 sequence (O00311 whole entry): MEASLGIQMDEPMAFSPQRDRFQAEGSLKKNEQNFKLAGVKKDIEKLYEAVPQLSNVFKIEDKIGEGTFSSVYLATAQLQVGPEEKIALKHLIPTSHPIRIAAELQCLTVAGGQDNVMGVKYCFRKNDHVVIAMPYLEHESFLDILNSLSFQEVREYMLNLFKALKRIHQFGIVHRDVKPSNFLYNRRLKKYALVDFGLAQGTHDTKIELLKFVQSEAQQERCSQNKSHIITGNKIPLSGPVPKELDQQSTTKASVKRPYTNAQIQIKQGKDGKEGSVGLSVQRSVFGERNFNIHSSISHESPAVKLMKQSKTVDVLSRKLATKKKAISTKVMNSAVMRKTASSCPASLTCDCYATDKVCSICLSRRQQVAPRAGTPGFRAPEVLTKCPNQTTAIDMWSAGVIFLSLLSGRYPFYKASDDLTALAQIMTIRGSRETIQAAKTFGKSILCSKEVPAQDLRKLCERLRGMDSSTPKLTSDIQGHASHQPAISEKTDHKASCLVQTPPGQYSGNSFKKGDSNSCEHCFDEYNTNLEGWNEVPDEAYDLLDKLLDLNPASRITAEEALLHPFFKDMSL
T1 sequence (Q9UBU7 whole entry partner): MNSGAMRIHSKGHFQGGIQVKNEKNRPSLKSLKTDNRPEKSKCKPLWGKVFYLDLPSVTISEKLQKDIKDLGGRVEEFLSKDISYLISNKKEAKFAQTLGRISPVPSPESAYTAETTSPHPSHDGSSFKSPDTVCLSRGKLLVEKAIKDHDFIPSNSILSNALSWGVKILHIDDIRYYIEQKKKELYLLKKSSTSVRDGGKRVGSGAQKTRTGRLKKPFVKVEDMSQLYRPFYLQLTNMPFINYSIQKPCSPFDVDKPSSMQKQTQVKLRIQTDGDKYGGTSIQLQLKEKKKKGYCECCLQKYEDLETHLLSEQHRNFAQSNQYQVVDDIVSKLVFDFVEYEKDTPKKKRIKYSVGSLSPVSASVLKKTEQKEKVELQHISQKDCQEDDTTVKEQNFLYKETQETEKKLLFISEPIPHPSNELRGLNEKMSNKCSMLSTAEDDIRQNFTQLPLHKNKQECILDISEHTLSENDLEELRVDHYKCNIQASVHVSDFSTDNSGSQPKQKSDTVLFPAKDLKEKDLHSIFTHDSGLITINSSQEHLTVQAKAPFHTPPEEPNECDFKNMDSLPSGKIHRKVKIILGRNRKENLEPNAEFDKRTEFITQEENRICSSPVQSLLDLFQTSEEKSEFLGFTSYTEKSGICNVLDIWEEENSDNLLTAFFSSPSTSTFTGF

Clc1cc(-c2c[nH]c3ncccc23)cc(NC2CCCCC2)n1 [Example 1, 6-Chloro-N-cyclohexyl-4-(1H-pyrrolo[2,3-b]pyridin-3-yl)pyridin-2-amine] and OC1CCCCC1Nc1cc(-c2c[nH]c3ncccc23)cc(Cl)n1 (stereo not shown) [Example 9, 2-{[6-chloro-4-(1H-pyrrolo[2,3-b]pyridin-3-yl)pyridin-2-yl]amino}cyclohexanol] cannot be ordered by Ki: less than 10 nM for the first, less than 10 nM for the second.

Clc1cc(-c2c[nH]c3ncccc23)cc(NCc2ccccc2)n1 [Example 2, N-Benzyl-6-chloro-4-(1H-pyrrolo[2,3-b]pyridin-3-yl)pyridin-2-amine] and Clc1cc(-c2c[nH]c3ncccc23)cc(NCc2cccnc2)n1 [Example 27, 6-chloro-N-(pyridin-3-ylmethyl)-4-(1H-pyrrolo[2,3-b]pyridin-3-yl)pyridin-2-amine] cannot be ordered by Ki: less than 10 nM for the first, less than 10 nM for the second.

C=CCNc1cc(-c2c[nH]c3ncccc23)cc(Cl)n1 [Example 3, N-Allyl-6-chloro-4-(1H-pyrrolo[2,3-b]pyridin-3-yl)pyridin-2-amine] and OCCNc1cc(-c2c[nH]c3ncccc23)cc(Cl)n1 [Example 11, 2-{[6-chloro-4-(1H-pyrrolo[2,3-b]pyridin-3-yl)pyridin-2-yl]amino}ethanol] cannot be ordered by Ki: less than 10 nM for the first, less than 10 nM for the second.

Clc1cc(-c2c[nH]c3ncccc23)cc(N2CCCCC2)n1 [Example 4, 3-(2-chloro-6-piperidin-1-ylpyridin-4-yl)-1H-pyrrolo[2,3-b]pyridine] and FC1(F)CN(c2cc(-c3c[nH]c4ncccc34)cc(Cl)n2)C1 [Example 6, 3-[2-chloro-6-(3,3-difluoroazetidin-1-yl)pyridin-4-yl]-1-1H-pyrrolo[2,3-b]pyridine] fall in the same range of Ki: 10 to 100 nM for the first, 10 to 100 nM for the second.

Compared with CN(Cc1ccccc1)c1cc(-c2c[nH]c3ncccc23)cc(Cl)n1 [Example 5, N-benzyl-6-chloro-N-methyl-4-(1H-pyrrolo[2,3-b]pyridin-3-yl)pyridin-2-amine], Cc1cccc(-c2cc(-c3c[nH]c4ncccc34)cc(Cl)n2)c1C [Example 7, 3-[2-chloro-6-(2,3-dimethylphenyl)pyridin-4-yl]-1H-pyrrolo[2,3-b]pyridine] is higher in Ki: less than 10 nM for the first, 10 to 100 nM for the second. The first binds more tightly here.

Clc1cc(-c2c[nH]c3ncccc23)cc(NC2CCOCC2)n1 [Example 8, 6-chloro-4-(1H-pyrrolo[2,3-b]pyridin-3-yl)-N-tetrahydro-2H-pyran-4-ylpyridin-2-amine] and Clc1cc(-c2c[nH]c3ncccc23)cc(NCC2CCOCC2)n1 [Example 25, 6-chloro-4-(1H-pyrrolo[2,3-b]pyridin-3-yl)-N-(tetrahydro-2H-pyran-4-ylmethyl)pyridin-2-amine] cannot be ordered by Ki: less than 10 nM for the first, less than 10 nM for the second.

COCCNc1cc(-c2c[nH]c3ncccc23)cc(Cl)n1 [Example 10, 6-chloro-N-(2-methoxyethyl)-4-(1H-pyrrolo[2,3-b]pyridin-3-yl)pyridin-2-amine] and OCCCCNc1cc(-c2c[nH]c3ncccc23)cc(Cl)n1 [Example 19, 4-{[6-chloro-4-(1H-pyrrolo[2,3-b]pyridin-3-yl)pyridin-2-yl]amino}butan-1-ol] cannot be ordered by Ki: less than 10 nM for the first, less than 10 nM for the second.

Compared with COCCN(CCOC)c1cc(-c2c[nH]c3ncccc23)cc(Cl)n1 [Example 12, 6-chloro-N,N-bis(2-methoxyethyl)-4-(1H-pyrrolo[2,3-b]pyridin-3-yl)pyridin-2-amine], CC(C)(O)CNc1cc(-c2c[nH]c3ncccc23)cc(Cl)n1 [Example 18, 1-{[6-chloro-4-(1H-pyrrolo[2,3-b]pyridin-3-yl)pyridin-2-yl]amino}-2-methylpropan-2-ol] is lower in Ki: 10 to 100 nM for the first, less than 10 nM for the second.

Clc1cc(-c2c[nH]c3ncccc23)cc(NCC2CCCO2)n1 (stereo not shown) [Example 13, 6-chloro-4-(1H-pyrrolo[2,3-b]pyridin-3-yl)-N-(tetrahydrofuran-2-ylmethyl)pyridin-2-amine] and O[C@H]1CC[C@H](Nc2cc(-c3c[nH]c4ncccc34)cc(Cl)n2)CC1 [Example 14, Trans 4-{[6-chloro-4-(1H-pyrrolo[2,3-b]pyridin-3-yl)pyridin-2-yl]amino}cyclohexanol] cannot be ordered by Ki: less than 10 nM for the first, less than 10 nM for the second.

NC1CCC(Nc2cc(-c3c[nH]c4ncccc34)cc(Cl)n2)CC1 (stereo not shown) [Example 15, N-[6-chloro-4-(1H-pyrrolo[2,3-b]pyridin-3-yl)pyridin-2-yl]cyclohexane-1,4-diamine] and NC1CCCC(Nc2cc(-c3c[nH]c4ncccc34)cc(Cl)n2)C1 (stereo not shown) [Example 23, N-[6-chloro-4-(1H-pyrrolo[2,3-b]pyridin-3-yl)pyridin-2-yl]cyclohexane-1,3-diamine] cannot be ordered by Ki: less than 10 nM for the first, less than 10 nM for the second.

Compared with COC1CCCCC1Nc1cc(-c2c[nH]c3ncccc23)cc(Cl)n1 (stereo not shown) [Example 16, 6-chloro-N-(2-methoxycyclohexyl)-4-(1H-pyrrolo[2,3-b]pyridin-3-yl)pyridin-2-amine], NC1CCCCC1Nc1cc(-c2c[nH]c3ncccc23)cc(Cl)n1 (stereo not shown) [Example 17, N-[6-chloro-4-(1H-pyrrolo[2,3-b]pyridin-3-yl)pyridin-2-yl]cyclohexane-1,2-diamine] is lower in Ki: 10 to 100 nM for the first, less than 10 nM for the second.

CC(C)(CO)CCCNc1cc(-c2c[nH]c3ncccc23)cc(Cl)n1 [Example 20] and OC1CCCC(Nc2cc(-c3c[nH]c4ncccc34)cc(Cl)n2)C1 (stereo not shown) [Example 26, 3-{[6-chloro-4-(1H-pyrrolo[2,3-b]pyridin-3-yl)pyridin-2-yl]amino}cyclohexanol] cannot be ordered by Ki: less than 10 nM for the first, less than 10 nM for the second.

CS(=O)(=O)NC1CCC(Nc2cc(-c3c[nH]c4ncccc34)cc(Cl)n2)CC1 (stereo not shown) [Example 21, N-(4-{[6-chloro-4-(1H-pyrrolo[2,3-b]pyridin-3-yl)pyridin-2-yl]amino}cyclohexyl)methanesulfonamide] and CS(=O)(=O)NC1CCCC(Nc2cc(-c3c[nH]c4ncccc34)cc(Cl)n2)C1 (stereo not shown) [Example 24, N-(3-{[6-chloro-4-(1H-pyrrolo[2,3-b]pyridin-3-yl)pyridin-2-yl]-amino}cyclohexyl)methanesulfonamide] cannot be ordered by Ki: less than 10 nM for the first, less than 10 nM for the second.

Work on CC(=O)NC1CCC(Nc2cc(-c3c[nH]c4ncccc34)cc(Cl)n2)CC1 (stereo not shown) [Example 22, N-(4-{[6-chloro-4-(1H-pyrrolo[2,3-b]pyridin-3-yl)pyridin-2-yl]-amino}cyclohexyl)acetamide] yielded a Ki of less than 10 nM.

Same assay, conditions: Table 2; Comparative Example lacking the chloro substituent versus the chloro Example

Going from N#Cc1cc(-c2c[nH]c3ncccc23)cc(N[C@H]2CC[C@H](O)CC2)n1 [Comparative Example 10, 6-[(trans-4-hydroxycyclohexyl)amino]-4-(1H-pyrrolo[2,3-b]pyridin-3-yl)pyridine-2-carbonitrile, reference compound] to NC(=O)c1cc(-c2c[nH]c3ncccc23)cc(N[C@H]2CC[C@H](O)CC2)n1 [Comparative Example 11, 6-[(trans-4-hydroxycyclohexyl)amino]-4-(1H-pyrrolo[2,3-b]pyridin-3-yl)pyridine-2-carboxamide, reference compound], the “Ki ratio comparisons (Ki Comparative Example/Ki Example)” value rises from 10 to 134.

Compared with c1cnc2[nH]cc(-c3ccnc(NC4CCCCC4)n3)c2c1 [Comparative Example 12, N-cyclohexyl-4-(1H-pyrrolo[2,3-b]pyridin-3-yl)pyrimidin-2-amine, reference compound], N[C@H]1CC[C@H](Nc2nccc(-c3c[nH]c4ncccc34)n2)CC1 [Comparative Example 13, Trans-N-[4-(1H-pyrrolo[2,3-b]pyridin-3-yl)pyrimidin-2-yl]cyclohexane-1,4-diamine, reference compound] is higher in “Ki ratio comparisons (Ki Comparative Example/Ki Example)” value: 3 for the first, 12 for the second.
